# Reference: ChEMBL document CHEMBL1147058, “An antibiotic produced by an insect-pathogenic bacterium suppresses host defenses through phenoloxidase inhibition” (Proc Natl Acad Sci U S A, 2007)
# Activity calls are given as the source filed them. The rule behind the calls is not given here.
# Experiments:
# Photorhabdus luminescens [1] = experiment: Induction of virulence of Photorhabdus luminescens TT01 assessed as decrease in survival of Photorhabdus luminescens TT01 infected Manduca sexta in presence of cinnamic acid; type: functional
# Photorhabdus luminescens [2] = experiment: Induction of virulence of stlA deficient Photorhabdus luminescens BMM901 assessed as decrease in survival of Photorhabdus luminescens BMM901 infected Manduca sexta in presence of cinnamic acid; type: functional
# Photorhabdus luminescens [3] = experiment: Induction of virulence of Photorhabdus luminescens TT01 assessed as increase in proliferation of Photorhabdus luminescens TT01 in Manduca sexta; type: functional
# [4] = biological target: T1, Prophenoloxidase (Manduca sexta) (UniProt Q0VJU6); experiment: Inhibition of Manduca sexta phenoloxidase at 60 uM
# T1 sequence (whole entry): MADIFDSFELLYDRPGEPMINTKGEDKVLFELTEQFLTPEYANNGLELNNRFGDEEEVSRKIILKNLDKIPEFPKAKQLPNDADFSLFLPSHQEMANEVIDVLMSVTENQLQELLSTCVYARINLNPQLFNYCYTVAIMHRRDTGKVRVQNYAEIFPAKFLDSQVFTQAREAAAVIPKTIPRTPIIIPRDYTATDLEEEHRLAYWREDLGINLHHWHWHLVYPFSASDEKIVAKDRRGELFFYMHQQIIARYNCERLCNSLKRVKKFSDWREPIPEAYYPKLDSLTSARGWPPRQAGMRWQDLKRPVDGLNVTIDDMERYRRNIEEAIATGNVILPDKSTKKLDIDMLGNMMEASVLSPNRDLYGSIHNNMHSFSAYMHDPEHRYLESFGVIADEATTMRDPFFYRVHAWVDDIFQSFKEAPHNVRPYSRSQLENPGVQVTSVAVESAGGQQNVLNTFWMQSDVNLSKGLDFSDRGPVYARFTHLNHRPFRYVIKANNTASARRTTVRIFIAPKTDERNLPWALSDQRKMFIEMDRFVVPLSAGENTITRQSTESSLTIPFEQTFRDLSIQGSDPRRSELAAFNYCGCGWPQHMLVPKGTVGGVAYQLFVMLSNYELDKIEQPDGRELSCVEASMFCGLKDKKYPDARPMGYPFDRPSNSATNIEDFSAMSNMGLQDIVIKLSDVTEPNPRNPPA
# Photorhabdus luminescens [5] = experiment: Induction of virulence of Photorhabdus luminescens TT01 assessed as increase in proliferation of Photorhabdus luminescens TT01 in Manduca sexta in presence of cinnamic acid; type: functional
# Manduca sexta = experiment: Inhibition of immune system assessed as suppression of melanotic nodule formation in Photorhabdus luminescens TT01 infected Manduca sexta; type: functional, organism-based
# [6] = Drug level in Photorhabdus luminescens TT01 infected Manduca sexta hemolymph after 24 hrs by TLC plate method; type: ADME, tissue-based; details: read-out: Drug uptake
# Photorhabdus luminescens [7] = experiment: Induction of virulence of stlA deficient Photorhabdus luminescens BMM901 assessed as increase in proliferation of Photorhabdus luminescens BMM901 in Manduca sexta in presence of cinnamic acid; type: functional
# Photorhabdus luminescens [8] = experiment: Induction of virulence of Photorhabdus luminescens TT01 assessed as decrease in survival of Photorhabdus luminescens TT01 infected Manduca sexta; type: functional
smiles,measurement,setting,value
CC(C)c1c(O)cc(/C=C/c2ccccc2)cc1O [TAPINAROF],Activity,Photorhabdus luminescens [1],Active
same,Activity,Photorhabdus luminescens [2],Active
same,Activity,Photorhabdus luminescens [3],Active
same,Activity,[4],Dose-dependent effect
same,Activity,Photorhabdus luminescens [5],Active
same,Activity,Manduca sexta,Active
same,concentration at 24 h,[6],275 µg/mL
same,Activity,Photorhabdus luminescens [7],Active
same,Activity,Photorhabdus luminescens [8],Active
